Experimental findings from patent US20230135152A1 (ACURASTEM INCORPORATED, priority 2020, published 2023) are described below.

Assay [1] addresses T1, PIKFYVE (Homo sapiens, UniProt Q9Y2I7). Kind of assay: PIKFYVE assay (luciferase ADP-Glo kinase assay, Promega). It is filed as biochemical. In a few lines: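 ADP generated in the kinase reaction was detected by ADP-Glo luminescence (luciferase).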
(In general: ADP-Glo turns the ADP formed in a reaction into a luminescent signal.)

Assay [2] concerns the target T1, PIKFYVE. Kind of assay: Cell-based Pikfyve inhibition activity assay (EEA1 staining, mean vesicle size in BJ fibroblast cells). The note with it: Table 4, 4 hours treatment, 3 μM Apilimod = 100% inhibition. A digest of the protocol: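 BJ fibroblasts treated 4 h at 37° C with eleven 3-fold doses (0.03-3000 nM), then fixed and stained for EEA1. Confocal images (20×, 16 tiles/well) analysed for mean vesicle size. Normalised to 0.5% DMSO (0%) and 3 μM apilimod (100%); dose-response fitted with variable slope.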

T1 sequence (Q9Y2I7 whole entry): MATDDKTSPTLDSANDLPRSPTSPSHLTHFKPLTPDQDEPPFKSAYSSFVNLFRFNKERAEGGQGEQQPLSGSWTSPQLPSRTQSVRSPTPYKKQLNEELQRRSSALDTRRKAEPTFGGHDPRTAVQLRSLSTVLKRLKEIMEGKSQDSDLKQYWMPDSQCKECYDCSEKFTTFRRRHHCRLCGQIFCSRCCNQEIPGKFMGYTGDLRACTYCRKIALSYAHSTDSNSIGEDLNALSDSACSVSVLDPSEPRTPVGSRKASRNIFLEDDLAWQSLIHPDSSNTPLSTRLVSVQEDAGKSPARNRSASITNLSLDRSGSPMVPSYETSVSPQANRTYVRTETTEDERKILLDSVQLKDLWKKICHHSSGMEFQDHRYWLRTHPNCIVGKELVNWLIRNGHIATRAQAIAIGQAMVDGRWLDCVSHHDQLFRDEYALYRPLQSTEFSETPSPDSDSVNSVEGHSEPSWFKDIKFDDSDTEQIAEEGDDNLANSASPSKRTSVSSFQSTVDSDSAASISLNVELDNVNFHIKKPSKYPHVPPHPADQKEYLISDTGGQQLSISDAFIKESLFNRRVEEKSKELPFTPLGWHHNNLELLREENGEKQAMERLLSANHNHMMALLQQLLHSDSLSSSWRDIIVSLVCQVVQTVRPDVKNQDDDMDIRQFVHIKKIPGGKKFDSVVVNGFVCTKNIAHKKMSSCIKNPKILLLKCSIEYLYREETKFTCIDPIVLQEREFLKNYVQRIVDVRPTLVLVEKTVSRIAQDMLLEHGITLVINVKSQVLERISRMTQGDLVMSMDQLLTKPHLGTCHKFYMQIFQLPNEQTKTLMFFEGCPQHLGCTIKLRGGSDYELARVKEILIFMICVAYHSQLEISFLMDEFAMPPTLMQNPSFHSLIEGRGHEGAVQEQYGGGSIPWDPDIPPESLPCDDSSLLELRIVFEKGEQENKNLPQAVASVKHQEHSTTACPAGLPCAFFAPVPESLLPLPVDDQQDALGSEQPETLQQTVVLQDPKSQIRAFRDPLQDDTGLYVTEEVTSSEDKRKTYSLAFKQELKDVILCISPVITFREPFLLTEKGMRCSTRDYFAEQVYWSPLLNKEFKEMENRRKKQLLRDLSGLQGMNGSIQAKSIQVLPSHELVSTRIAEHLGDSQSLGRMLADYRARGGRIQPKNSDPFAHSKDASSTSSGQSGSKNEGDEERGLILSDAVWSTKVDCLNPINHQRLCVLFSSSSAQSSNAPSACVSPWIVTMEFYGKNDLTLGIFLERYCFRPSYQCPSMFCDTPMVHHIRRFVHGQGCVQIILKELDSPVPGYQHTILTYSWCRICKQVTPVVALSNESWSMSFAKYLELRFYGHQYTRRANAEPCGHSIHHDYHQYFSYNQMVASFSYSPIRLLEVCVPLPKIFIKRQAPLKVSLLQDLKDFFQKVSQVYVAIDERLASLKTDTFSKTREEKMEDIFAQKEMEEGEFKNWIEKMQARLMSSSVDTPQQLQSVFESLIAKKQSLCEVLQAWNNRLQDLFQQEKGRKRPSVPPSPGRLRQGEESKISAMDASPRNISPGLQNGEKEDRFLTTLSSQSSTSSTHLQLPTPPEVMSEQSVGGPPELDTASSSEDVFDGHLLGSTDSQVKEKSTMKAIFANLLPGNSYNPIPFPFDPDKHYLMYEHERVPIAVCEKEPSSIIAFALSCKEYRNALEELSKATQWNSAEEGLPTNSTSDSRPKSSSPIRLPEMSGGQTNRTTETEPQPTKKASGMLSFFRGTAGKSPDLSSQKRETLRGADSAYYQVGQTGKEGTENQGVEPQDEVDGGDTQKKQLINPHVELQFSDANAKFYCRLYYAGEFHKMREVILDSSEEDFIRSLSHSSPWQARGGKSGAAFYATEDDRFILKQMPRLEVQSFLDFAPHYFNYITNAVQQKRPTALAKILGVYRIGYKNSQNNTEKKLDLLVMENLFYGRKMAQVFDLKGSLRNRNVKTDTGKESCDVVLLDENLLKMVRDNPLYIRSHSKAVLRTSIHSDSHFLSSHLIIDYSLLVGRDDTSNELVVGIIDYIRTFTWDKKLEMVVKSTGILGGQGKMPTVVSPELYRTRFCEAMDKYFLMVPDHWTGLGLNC

As to `COCc1cc(-c2ccccc2)nn1-c1cc(N2CCOCC2)nc(OCCc2cnn(C)c2)n1` [Compound 217, 4-(6-(5-(methoxymethyl)-3-phenyl-1H-pyrazol-1-yl)-2-(2-(1-methyl-1H-pyrazol-4-yl)ethoxy)pyrimidin-4-yl)morpholine], the IC50 at PIKFYVE [1] (Table 3) was less than 3 nM. This molecule yielded an EC50 at PIKFYVE [2] of 20 to 100 nM.

In turn, `OC(c1ccccc1)c1nc(N2CCOCC2)cc(-n2ccc(-c3ccccc3)n2)n1` (stereo not shown) [Compound 183, (4-morpholino-6-(3-phenyl-1H-pyrazol-1-yl)pyrimidin-2-yl)(phenyl)methanol] showed an IC50 against PIKFYVE [1] (Table 3) of 10 to 100 nM. Moreover, at PIKFYVE [2], the EC50 fell in the range of 100 to 500 nM.

In the case of `Cc1cccc(-c2ccn(-c3cc(N4CCOCC4)n4nc(C)cc4n3)n2)c1` [Compound 336, 4-(2-methyl-5-(3-(m-tolyl)-1H-pyrazol-1-yl)pyrazolo[1,5-a]pyrimidin-7-yl)morpholine], at PIKFYVE [1] (Table 3), the IC50 lay in the range of 10 to 100 nM. The EC50 at PIKFYVE [2] was in the range of 500 to 5000 nM.

In turn, `COCC(O)c1nc(N2CCOCC2)cc(-n2ccc(-c3cccc(C)c3)n2)n1` (stereo not shown) [Compound 155, 2-methoxy-1-(4-morpholino-6-(3-(m-tolyl)-1H-pyrazol-1-yl)pyrimidin-2-yl)ethan-1-ol] showed an IC50 against PIKFYVE [1] (Table 3) of 3 to 10 nM. This molecule displayed an EC50 on PIKFYVE [2] of 100 to 500 nM.

With `Cc1cc(Oc2ccn(-c3cc(N4CCOCC4)nc(OCCc4cnn(C)c4)n3)n2)ccn1` [Compound 302, 4-(2-(2-(1-methyl-1H-pyrazol-4-yl)ethoxy)-6-(3-((2-methylpyridin-4-yl)ox)-1H-pyrazol-1-yl)pyrimidin-4-yl)morpholine], the half-inhibitory concentration (IC50) against PIKFYVE [1] (Table 3) fell in the range of 10 to 100 nM. For the same molecule, on PIKFYVE [2], the EC50 was greater than 5000 nM.

For `Cn1cc(CCOc2nc(N3CCOCC3)cc(-n3ccc(C(=O)N4CCCCC4)n3)n2)cn1` [Compound 172, (1-(2-(2-(1-methyl-1H-pyrazol-4-yl)ethoxy)-6-morpholinopyrimidin-4-yl)-1H-pyrazol-3-yl)(piperidin-1-yl)methanone], the IC50 at PIKFYVE [1] (Table 3) lay within 100 to 5000 nM. The molecule also gave an EC50 at PIKFYVE [2] greater than 5000 nM.

In turn, `COC(Cc1ccnn1C)c1nc(N2CCOCC2)cc(-n2ccc(-c3ccccc3)n2)n1` (stereo not shown) [Compound 68, 4-(2-(1-methoxy-2-(1-methyl-1H-pyrazol-5-yl)ethyl)-6-(3-phenyl-1H-pyrazol-1-yl)pyrimidin-4-yl)morpholine] registered an IC50 against PIKFYVE [1] (Table 2) of less than 5 nM. For the same molecule, the EC50 on PIKFYVE [2] was 100 to 500 nM.

On to `CNCCc1cc(-c2ccccc2)nn1-c1cc(N2CCOCC2)nc(OCCc2cnn(C)c2)n1` [Compound 221, N-methyl-2-(1-(2-(2-(1-methyl-1H-pyrazol-4-yl)ethoxy)-6-morpholinopyrimidin-4-yl)-3-phenyl-1H-pyrazol-5-yl)ethan-1-amine], for which the IC50 on PIKFYVE [1] (Table 3) is less than 3 nM. On PIKFYVE [2], this molecule displayed an EC50 of 20 to 100 nM.

Take `Cc1cccc(Oc2ccn(-c3cc(N4CCOCC4)nc(OCCc4cnn(C)c4)n3)n2)c1` [Compound 346]: at PIKFYVE [1] (Table 3), the IC50 is less than 3 nM. For the same molecule, the EC50 at PIKFYVE [2] lay within 20 to 100 nM.

On PIKFYVE [1] (Table 3), `C[C@H](O)c1cccc(-c2ccn(-c3cc(N4CCOCC4)nc(OCCc4cnn(C)c4)n3)n2)c1` (single isomer, unassigned) [Compound 316] returned a half-maximal inhibitory concentration (IC50) of 3 to 10 nM. At PIKFYVE [2], this molecule came in with an EC50 of 20 to 100 nM.

`Cn1cc(CCOc2nc(Oc3cc(-c4ccccc4)nn3C)cc(N3CCOCC3)n2)cn1` [Compound 212, 4-(2-(2-(1-methyl-1H-pyrazol-4-yl)ethoxy)-6-((1-methyl-3-phenyl-1H-pyrazol-5-yl)oxy)pyrimidin-4-yl)morpholine]: the IC50 at PIKFYVE [1] (Table 3) is 3 to 10 nM. Moreover, the EC50 at PIKFYVE [2] fell in the range of 500 to 5000 nM.

By IC50 is commonly meant the concentration that inhibits the measured activity by half. By EC50 is commonly meant the concentration at which the effect is half-maximal. Read a low EC50 as higher potency in that assay.
